Patent US10596082B2, “Oral care compositions and methods of use” (Colgate-Palmolive Company, priority 2017, dated 2020)

Test system: microorganisms
Assay: Bactericidal testing of toothpaste final base made with contaminated PCC slurry (plate count)
Settings: final toothpaste base with previously contaminated PCC slurry, plated on MLA, 30° C.
Method: In a stainless steel bucket, water and humectant was first added and stirred using an overhead stirrer (EUROSTAR 200, IKA, North Carolina, USA) equipped with a cowles disperser. Mixing was started at 500 rpm for 1 minute. Gum and salts (buffering agents, sweetener, fluoride) were added next and the resulting solution was mixed at 1,000 rpm for 20 minutes to obtain a gel phase.
A fraction of the gel phase sample was transferred to a new stainless steel bucket. Using an overhead stirrer (EUROSTAR 200, IKA) equipped with a 4-bladed propeller stirrer, mixing was performed at 750 rpm for 1 minute. Next, to the mixture was added water, PCC slurry (previously contaminated for the study purpose), surfactant, and other ingredients (benzyl alcohol/caprylyl glycol or phenethyl alcohol/caprylyl glycol) and mixed for 15 minutes to obtain the final base.
Sample preparation was made by mixing 10 grams of the final base (see Example 1) with 90 mL of diluent (TAT broth (catalog #298410, BD) supplemented with 0.3% NaCl and 4% Tween) to achieve a 1:10 dilution. Serial dilutions of 10^−1 to 10^−6 were made in neutralizing broth (TAT supplemented with 0.3% NaCl), allowed to incubate for 0, 2, 4, 6, 24 and 48 hours, and plated in 15-20 mL of melted Modified Letheen Agar (MLA). Plates were swirled to allow complete dispersion and allowed to solidify. Solidified plates were then inverted and incubated at 30° C. for at least 48 hours. Colonies were counted using a Quebec colony counter (Phoenix Luferco, Brazil). Table 2 presents the study results, showing numbers of microorganisms per gram of product (CFU/) at different time points.

Compound: CCCCCCC(O)CO (stereo not drawn) [Caprylyl glycol (0.20%), Caprylyl glycol]
- numbers of microorganisms per gram of product, 0 hr: 13,300 CFU/
- numbers of microorganisms per gram of product, 2 hr: 14,000 CFU/
- numbers of microorganisms per gram of product, 4 hr: 1,200 CFU/
- numbers of microorganisms per gram of product, 6 hr: 2,100 CFU/
- numbers of microorganisms per gram of product, 24 hr: 435 CFU/
- numbers of microorganisms per gram of product, 48 hr: 80 CFU/

Compound: OCc1ccccc1 [Benzyl alcohol (0.30%), Benzyl alcohol]
- numbers of microorganisms per gram of product, 0 hr: 13,300 CFU/
- numbers of microorganisms per gram of product, 2 hr: 18,250 CFU/
- numbers of microorganisms per gram of product, 4 hr: 13,000 CFU/
- numbers of microorganisms per gram of product, 6 hr: 8,000 CFU/
- numbers of microorganisms per gram of product, 24 hr: 3,650 CFU/
- numbers of microorganisms per gram of product, 48 hr: 125 CFU/
